# Molecular target: T1, human recombinant HDAC6 (Homo sapiens, UniProt Q9UBN7)
# T1 construct: purchased Calbiochem 382180
# T1 sequence (Q9UBN7 1-1215): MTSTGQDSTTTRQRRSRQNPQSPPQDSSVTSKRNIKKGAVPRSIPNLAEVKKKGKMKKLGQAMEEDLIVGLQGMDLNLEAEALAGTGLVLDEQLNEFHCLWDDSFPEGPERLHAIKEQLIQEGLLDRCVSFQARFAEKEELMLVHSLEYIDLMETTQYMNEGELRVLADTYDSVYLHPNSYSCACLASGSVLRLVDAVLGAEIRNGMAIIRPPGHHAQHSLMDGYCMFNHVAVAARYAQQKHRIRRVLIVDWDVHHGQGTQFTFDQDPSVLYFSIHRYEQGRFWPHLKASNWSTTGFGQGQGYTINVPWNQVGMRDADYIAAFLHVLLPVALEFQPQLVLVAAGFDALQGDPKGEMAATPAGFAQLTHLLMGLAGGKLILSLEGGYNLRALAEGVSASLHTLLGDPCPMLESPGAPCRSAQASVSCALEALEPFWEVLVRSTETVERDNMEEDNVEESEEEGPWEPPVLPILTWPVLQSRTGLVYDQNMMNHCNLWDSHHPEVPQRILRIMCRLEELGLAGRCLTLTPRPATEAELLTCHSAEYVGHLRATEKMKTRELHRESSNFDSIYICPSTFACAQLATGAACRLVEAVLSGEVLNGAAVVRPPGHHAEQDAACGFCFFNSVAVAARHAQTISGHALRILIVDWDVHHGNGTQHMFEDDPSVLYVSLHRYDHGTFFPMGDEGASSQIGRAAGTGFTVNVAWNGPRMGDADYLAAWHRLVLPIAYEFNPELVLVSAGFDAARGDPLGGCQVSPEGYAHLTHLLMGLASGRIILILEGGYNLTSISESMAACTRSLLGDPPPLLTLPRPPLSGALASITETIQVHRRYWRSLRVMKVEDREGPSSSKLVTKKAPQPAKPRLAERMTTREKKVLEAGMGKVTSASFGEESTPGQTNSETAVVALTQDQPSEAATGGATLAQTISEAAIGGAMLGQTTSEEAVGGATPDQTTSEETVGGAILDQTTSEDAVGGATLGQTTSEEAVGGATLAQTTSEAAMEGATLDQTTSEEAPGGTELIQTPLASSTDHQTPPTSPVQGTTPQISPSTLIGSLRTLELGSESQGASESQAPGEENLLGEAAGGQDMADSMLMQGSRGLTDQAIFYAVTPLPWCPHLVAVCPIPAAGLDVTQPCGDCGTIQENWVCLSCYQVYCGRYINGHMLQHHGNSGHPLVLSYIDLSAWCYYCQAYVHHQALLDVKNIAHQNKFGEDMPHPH
# Assay: HDAC6 enzyme activity inhibition assay (HDAC Fluorimetric Drug Discovery Kit)
# Format: biochemical
# Details: for HDAC6 selectivity (fold): HDAC6 over HDAC1; for IC50: human recombinant HDAC6, same protocol as HDAC1, read-out: HDAC6
# Method in brief: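 Human recombinant HDAC1 or HDAC6 (0.3 μg) reacted with 10 μM Fluor de Lys-SIRT1 substrate and 5-fold compound dilutions for 60 min at 30 °C. Developer II added for 30 min, fluorescence read at Ex 360/Em 460; IC50 calculated from the readings.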
HDAC6 selectivity (fold),IC50 [nM],Structure (SMILES)
116,86,"O=C(NCCN1CCCCC1)N(Cc1ccc(-c2nnc(C(F)F)o2)cc1F)c1ccccc1 [Compound 21957, 1-(4-(5-(Difluoromethyl)-1,3,4-oxadiazol-2-yl)-2-fluorobenzyl)-1-phenyl-3-(2-(piperidin-1-yl)ethyl)urea]"
115,87,"CN1CCN(CCNC(=O)N(Cc2ccc(-c3nnc(C(F)F)o3)cc2F)c2ccccc2)CC1 [Compound 21958, 1-(4-(5-(Difluoromethyl)-1,3,4-oxadiazol-2-yl)-2-fluorobenzyl)-3-(2-(4-methylpiperazin-1-yl)ethyl)-1-phenylurea]"
6,1550,"CN1CCC(c2ccc(N(Cc3ccc(-c4nnc(C(F)F)o4)cc3F)C(=O)N3CCS(=O)(=O)CC3)cc2)CC1 [Compound 21970, N-(4-(5-(difluoromethyl)-1,3,4-oxadiazol-2-yl)-2-fluorobenzyl)-N-(4-(1-methylpiperidin-4-yl)phenyl)thiomorpholine-4-carboxamide 1,1-dioxide]"
59,169,"CCN1CCN(CCOc2ccc(N(Cc3ccc(-c4nnc(C(F)F)o4)cc3F)C(=O)N3CCS(=O)(=O)CC3)cc2)CC1 [Compound 21971, N-(4-(5-(difluoromethyl)-1,3,4-oxadiazol-2-yl)-2-fluorobenzyl)-N-(4-(2-(4-ethylpiperazin-1-yl)ethoxy)phenyl)thiomorpholine-4-carboxamide 1,1-dioxide]"
38,266,"CCN1CCN(CCCOc2ccc(N(Cc3ccc(-c4nnc(C(F)F)o4)cc3F)C(=O)N3CCS(=O)(=O)CC3)cc2)CC1 [Compound 21972, N-(4-(5-(difluoromethyl)-1,3,4-oxadiazol-2-yl)-2-fluorobenzyl)-N-(4-(3-(4-ethylpiperazin-1-yl)propoxy)phenyl)thiomorpholine-4-carboxamide 1,1-dioxide]"
15,669,"Cc1nnc(N(Cc2ccc(-c3nnc(C(F)F)o3)cc2F)C(=O)N2CCS(=O)(=O)CC2)s1 [Compound 21979, N-(4-(5-(difluoromethyl)-1,3,4-oxadiazol-2-yl)-2-fluorobenzyl)-N-(5-methyl-1,3,4-thiadiazol-2-yl)thiomorpholine-4-carboxamide 1,1-dioxide]"
10,1030,"Cc1nnc(N(Cc2ccc(-c3nnc(C(F)F)o3)cc2F)C(=O)N2CCOCC2)s1 [Compound 21980, N-(4-(5-(difluoromethyl)-1,3,4-oxadiazol-2-yl)-2-fluorobenzyl)-N-(5-methyl-1,3,4-thiadiazol-2-yl)morpholine-4-carboxamide]"
13,758,"O=C(N1CCOCC1)N(Cc1ccc(-c2nnc(C(F)F)o2)cc1F)c1nncs1 [Compound 21981, N-(4-(5-(difluoromethyl)-1,3,4-oxadiazol-2-yl)-2-fluorobenzyl)-N-(1,3,4-thiadiazol-2-yl) morpholine-4-carboxamide]"
96,104,"O=C(NCCN1CCOCC1)N(Cc1ccc(-c2nnc(C(F)F)o2)cc1F)c1ccccc1 [Compound 21982, 1-(4-(5-(Difluoromethyl)-1,3,4-oxadiazol-2-yl)-2-fluorobenzyl)-3-(2-morpholinoethyl)-1-phenylurea]"
63,160,"O=C(NCCN1CC(F)(F)C1)N(Cc1ccc(-c2nnc(C(F)F)o2)cc1F)c1ccccc1 [Compound 21983, 3-(2-(3,3-Difluoroazetidin-1-yl)ethyl)-1-(4-(5-(difluoromethyl)-1,3,4-oxadiazol-2-yl)-2-fluorobenzyl)-1-phenylurea]"
107,93,"O=C(CN1CCN(CCNC(=O)N(Cc2ccc(-c3nnc(C(F)F)o3)cc2F)c2ccccc2)CC1)N1CCOCC1 [Compound 21984, 1-(4-(5-(Difluoromethyl)-1,3,4-oxadiazol-2-yl)-2-fluorobenzyl)-3-(2-(4-(2-morpholino-2-oxoethyl)piperazin-1-yl)ethyl)-1-phenylurea]"
207,48,"O=C(NCCN1CCCOCC1)N(Cc1ccc(-c2nnc(C(F)F)o2)cc1F)c1ccccc1 [Compound 21986, 3-(2-(1,4-Oxazepan-4-yl)ethyl)-1-(4-(5-(difluoromethyl)-1,3,4-oxadiazol-2-yl)-2-fluorobenzyl)-1-phenylurea]"

# Second part, the compound before the results:
Structure (SMILES),HDAC6 selectivity (fold),IC50 [nM]
"O=C(N1CCN(C2COC2)CC1)N(Cc1ccc(-c2nnc(C(F)F)o2)cc1)c1ccc(Cl)cc1 [Compound 21945, N-(4-Chlorophenyl)-N-(4-(5-(difluoromethyl)-1,3,4-oxadiazol-2-yl)benzyl)-4-(oxetan-3-yl)piperazine-1-carboxamide]",52,193
"O=C(N1CCN(C2COC2)CC1)N(Cc1ccc(-c2nnc(C(F)F)o2)cc1F)c1ccc(Cl)cc1 [Compound 21946, N-(4-Chlorophenyl)-N-(4-(5-(difluoromethyl)-1,3,4-oxadiazol-2-yl)-2-fluorobenzyl)-4-(oxetan-3-yl)piperazine-1-carboxamide]",81,123
"O=C(N1CCN(C2COC2)CC1)N(Cc1ccc(-c2nnc(C(F)F)o2)cn1)c1ccc(Cl)cc1 [Compound 21947, N-(4-Chlorophenyl)-N-((5-(5-(difluoromethyl)-1,3,4-oxadiazol-2-yl)pyridin-2-yl)methyl)-4-(oxetan-3-yl)piperazine-1-carboxamide]",112,90
"COc1cccc(N(Cc2ccc(-c3nnc(C(F)F)o3)cn2)C(=O)N2CCN(C3COC3)CC2)c1 [Compound 21950, N-((5-(5-(Difluoromethyl)-1,3,4-oxadiazol-2-yl)pyridin-2-yl)methyl)-N-(3-methoxyphenyl)-4-(oxetan-3-yl)piperazine-1-carboxamide]",64,157
"COc1ccc(N(Cc2ccc(-c3nnc(C(F)F)o3)cc2)C(=O)N2CCN(C3COC3)CC2)cc1 [Compound 21951, N-(4-(5-(Difluoromethyl)-1,3,4-oxadiazol-2-yl)benzyl)-N-(4-methoxyphenyl)-4-(oxetan-3-yl)piperazine-1-carboxamide]",26,391
"COc1ccc(N(Cc2ccc(-c3nnc(C(F)F)o3)cc2F)C(=O)N2CCN(C3COC3)CC2)cc1 [Compound 21952, N-(4-(5-(Difluoromethyl)-1,3,4-oxadiazol-2-yl)-2-fluorobenzyl)-N-(4-methoxyphenyl)-4-(oxetan-3-yl)piperazine-1-carboxamide]",58,172
"COc1ccc(N(Cc2ccc(-c3nnc(C(F)F)o3)cn2)C(=O)N2CCN(C3COC3)CC2)cc1 [Compound 21953, N-((5-(5-(Difluoromethyl)-1,3,4-oxadiazol-2-yl)pyridin-2-yl)methyl)-N-(4-methoxyphenyl)-4-(oxetan-3-yl)piperazine-1-carboxamide]",62,160
"O=C(N1CCN(C2COC2)CC1)N(Cc1ccc(-c2nnc(C(F)F)o2)cc1F)c1ccccc1 [Compound 21955, N-(4-(5-(Difluoromethyl)-1,3,4-oxadiazol-2-yl)-2-fluorobenzyl)-4-(oxetan-3-yl)-N-phenylpiperazine-1-carboxamide]",113,89
"O=C(NCCN1CCCC1)N(Cc1ccc(-c2nnc(C(F)F)o2)cc1F)c1ccccc1 [Compound 21956, 1-(4-(5-(Difluoromethyl)-1,3,4-oxadiazol-2-yl)-2-fluorobenzyl)-1-phenyl-3-(2-(pyrrolidin-1-yl)ethyl)urea]",60,167
"CCN1CCN(CCCCOc2ccc(N(Cc3ccc(-c4nnc(C(F)F)o4)cc3F)C(=O)N3CCS(=O)(=O)CC3)cc2)CC1 [Compound 21973, N-(4-(5-(difluoromethyl)-1,3,4-oxadiazol-2-yl)-2-fluorobenzyl)-N-(4-(4-(4-ethylpiperazin-1-yl)butoxy)phenyl)thiomorpholine-4-carboxamide 1,1-dioxide]",39,256
